Measured values as given in patent US20120053170A1, “NICOTINAMIDE DERIVATIVES, PREPARATION THEREOF, AND THERAPEUTIC USE THEREOF AS ANTICANCER DRUGS” (SANOFI, priority 2009, published 2012).
pIC50: −log10 of the molar value.

system: HCT116 tumour line (ATCC-CCL247); experiment: MTS cell proliferation and viability test on the HCT116 tumour line; format: cell-based; settings: Homo sapiens, HCT-116, incubating the test compound for 72 hours, read-out: IC50 (concentration of compound which results in a 50% loss of cell proliferation and viability)
Procedure: They were tested in vitro on the HCT116 tumour line (ATCC-CCL247). […] In this test, the mitochondrial ability of the living cells to convert MTS to a coloured compound is measured after incubating the test compound for 72 hours.

Row | SMILES | pIC50
1 | CCNc1nc(-c2ccc(NC(=O)NCc3cccnc3)c(F)c2)ccc1C(=O)NCCN1CCCCC1 [Compound No. 27, 2-Ethylamino-6-{3-fluoro-4-[3-(pyridin-3-ylmethyl)ureido]phenyl}-N-[2-(piperidin-1-yl)ethyl]nicotinamide] | > 9.00
2 | CCNc1nc(-c2ccc(NC(=O)NCc3ccc(N)nc3)c(F)c2)ccc1C(=O)NCCN1[C@H](C)CCC[C@@H]1C [Compound No. 19, 6-{4-[3-(6-Aminopyridin-3-ylmethyl)ureido]-3-fluorophenyl]-N-[2-(cis-2,6-dimethylpiperidin-1-yl)ethyl]-2-(ethylamino)nicotinamide] | > 9.00
3 | Nc1ccc(CNC(=O)Nc2ccc(-c3ccc(C(=O)NCCN4CCCCC4)c(Nc4ccccc4)n3)cc2F)cn1 [Compound No. 5, 6-{4-[3-(6-Aminopyridin-3-ylmethyl)ureido]-3-fluorophenyl}-2-phenylamino-N-[2-(piperidin-1-yl)ethyl]nicotinamide] | > 9.00
4 | CCNc1nc(-c2ccc(NC(=O)NCc3ccc(N)nc3)cc2F)ccc1C(=O)NCCN1CCCCC1 [Compound No. 11, 6-{4-[3-(6-Aminopyridin-3-ylmethyl)ureido]-2-fluorophenyl}-2-ethylamino-N-[2-(piperidin-1-yl)ethyl]nicotinamide] | > 9.00
